Source: ChEMBL document CHEMBL1201862, “PubChem BioAssay data set” (2004)
The source made the active and inactive calls.

Legend:
[1] = NIH-3T3 fibroblast cytotoxicity, dose response, cytotoxicity control, cell-based, fluorescence, Alamar Blue, secondary assay (AID 2327); format: functional;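 note: NIH-3T3 mouse fibroblasts cultured with fluconazole at 8 µg/mL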
[2] = system: Streptococcus sp. 'group A'; experiment: growth inhibition of control SK(-) GAS strain, dose response, counter-screen for streptokinase expression inhibitor project, luminescence, kanamycin, BacTiterGlo, confirmation (AID 1900); format: functional, organism-based
[3] = C. albicans growth with fluconazole, confirmation, fluorescence, retest (AID 2467); format: functional, cell-based
[4] = molecular target: Serine/threonine-protein phosphatase (Candida dubliniensis (strain CD36 / CBS 7987 / NCPF 3949 / NRRLY-17841) (Yeast), UniProt B9W6M3); experiment: calcineurin pathway inhibitors in yeast reporter, dose response, S. cerevisiae, CDRE-lacZ, luminescence, secondary (AID 2388); format: functional, cell-based;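 note: yeast reporter cells carrying a calcineurin-responsive lacZ construct stimulated with calcium chloride; luminescent beta-galactosidase reporter signal in whole cells rather than isolated phosphatase activity; potency for inhibition where a drop in reporter signal means calcineurin blockade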
Sequence of Serine/threonine-protein phosphatase (B9W6M3 whole entry): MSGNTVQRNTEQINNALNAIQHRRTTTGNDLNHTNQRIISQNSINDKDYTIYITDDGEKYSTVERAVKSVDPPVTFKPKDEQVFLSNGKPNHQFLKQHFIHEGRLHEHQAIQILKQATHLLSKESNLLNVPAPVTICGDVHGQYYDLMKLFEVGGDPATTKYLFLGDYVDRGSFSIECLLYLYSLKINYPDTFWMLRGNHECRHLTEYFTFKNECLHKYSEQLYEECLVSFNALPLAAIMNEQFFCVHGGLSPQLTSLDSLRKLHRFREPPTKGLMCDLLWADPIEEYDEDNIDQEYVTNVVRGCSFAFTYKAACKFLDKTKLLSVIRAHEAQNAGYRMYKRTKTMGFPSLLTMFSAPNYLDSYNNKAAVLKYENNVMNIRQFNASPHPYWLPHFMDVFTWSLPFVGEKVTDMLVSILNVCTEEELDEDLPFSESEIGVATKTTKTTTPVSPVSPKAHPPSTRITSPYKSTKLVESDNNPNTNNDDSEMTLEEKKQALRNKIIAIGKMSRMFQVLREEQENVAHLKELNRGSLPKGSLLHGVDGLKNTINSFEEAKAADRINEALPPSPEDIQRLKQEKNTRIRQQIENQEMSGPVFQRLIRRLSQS

Streptococcus = experiment: Group A Streptococcus viability loss, dose response, counter-screen for streptokinase expression inhibitor project, luminescence, BacTiterGlo (AID 1915); format: functional, organism-based;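 note: potency for reduction of bacterial viability or growth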
[5] = molecular target: ATP-dependent molecular chaperone HSP82 (Candida albicans (strain WO-1) (Yeast), UniProt C4YTQ8); experiment: loss of DOC-induced GRE-beta-galactosidase reporter signal, dose response, Hsp90 inhibitor project, S. cerevisiae, luminescence (AID 2400); format: functional, cell-based;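 note: beta-galactosidase luminescence from glucocorticoid response element reporter as proxy for Hsp90 function; inhibitor potency where signal loss means Hsp90 inhibition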
Sequence of ATP-dependent molecular chaperone HSP82 (C4YTQ8 whole entry): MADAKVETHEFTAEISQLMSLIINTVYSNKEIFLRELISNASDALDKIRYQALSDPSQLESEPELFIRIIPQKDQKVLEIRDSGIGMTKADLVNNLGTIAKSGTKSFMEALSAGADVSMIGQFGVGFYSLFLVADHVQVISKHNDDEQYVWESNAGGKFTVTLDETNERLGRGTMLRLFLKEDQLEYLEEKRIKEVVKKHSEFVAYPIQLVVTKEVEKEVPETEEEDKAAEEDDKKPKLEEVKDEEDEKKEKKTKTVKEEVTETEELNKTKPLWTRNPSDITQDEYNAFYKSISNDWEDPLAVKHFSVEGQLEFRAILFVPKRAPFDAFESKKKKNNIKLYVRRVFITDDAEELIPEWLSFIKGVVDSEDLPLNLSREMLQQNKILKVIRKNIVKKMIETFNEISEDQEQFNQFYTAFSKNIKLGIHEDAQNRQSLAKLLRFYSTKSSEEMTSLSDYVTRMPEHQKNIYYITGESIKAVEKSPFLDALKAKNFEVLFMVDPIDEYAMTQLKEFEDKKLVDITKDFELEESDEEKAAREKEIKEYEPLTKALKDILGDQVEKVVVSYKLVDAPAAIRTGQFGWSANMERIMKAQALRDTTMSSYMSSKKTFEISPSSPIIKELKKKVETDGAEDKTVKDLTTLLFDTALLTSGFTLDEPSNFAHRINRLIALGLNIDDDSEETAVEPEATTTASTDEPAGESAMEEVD

Albumin = Albumin (Bos taurus, UniProt P02769); experiment: Counterscreen for inhibitors of T-cell receptor (TCR)-CD3 interaction: Fluorescence-based biochemical high throughput dose response assay to identify inhibitors of T-cell receptor (TCR)-CD3 interaction using a TAMRA-labeled BSA probe.; format: functional
Sequence of Albumin (P02769 whole entry): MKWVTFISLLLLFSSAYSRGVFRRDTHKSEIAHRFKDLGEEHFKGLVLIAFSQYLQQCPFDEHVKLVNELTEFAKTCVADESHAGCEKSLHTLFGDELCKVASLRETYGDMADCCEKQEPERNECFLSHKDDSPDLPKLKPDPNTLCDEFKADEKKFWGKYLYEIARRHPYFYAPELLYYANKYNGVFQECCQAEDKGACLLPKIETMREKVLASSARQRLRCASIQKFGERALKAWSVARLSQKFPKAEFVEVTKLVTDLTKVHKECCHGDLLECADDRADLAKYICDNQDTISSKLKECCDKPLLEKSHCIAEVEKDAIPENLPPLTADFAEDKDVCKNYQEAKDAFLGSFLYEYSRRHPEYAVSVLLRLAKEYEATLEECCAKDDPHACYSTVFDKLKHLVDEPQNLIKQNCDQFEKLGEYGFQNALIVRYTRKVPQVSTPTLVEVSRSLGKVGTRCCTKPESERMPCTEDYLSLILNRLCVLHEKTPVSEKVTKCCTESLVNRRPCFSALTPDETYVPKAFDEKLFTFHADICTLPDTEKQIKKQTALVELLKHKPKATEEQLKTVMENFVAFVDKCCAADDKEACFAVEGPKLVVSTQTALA

INS1 [6] = experiment: protection of INS-1E cells from cytokine death, dose response, ATP luminescence, dry powder (AID 488844); format: functional, cell-based; conditions: Rattus norvegicus
[7] = inhibitors of cytokine-induced nitrite release, dose response, cell-based, Griess absorbance, INS-1E, dry powder, set 3 (AID 488870); format: functional; conditions: Rattus norvegicus
INS1 [8] = experiment: protection from cytokine-driven beta-cell apoptosis, dose response, JC-1 fluorescence, INS-1E, dry powder, set 2 (AID 488867); format: functional, cell-based; conditions: Rattus norvegicus
INS1 [9] = experiment: protection from cytokine-induced mitochondrial depolarization, dose response, cell-based, INS-1E, JC-1 fluorescence ratio, dry powder (AID 488931); format: functional; conditions: Rattus norvegicus
[10] = molecular target: 5-hydroxytryptamine receptor 1A (Homo sapiens, UniProt P08908); format: functional
Sequence of 5-hydroxytryptamine receptor 1A (P08908 whole entry): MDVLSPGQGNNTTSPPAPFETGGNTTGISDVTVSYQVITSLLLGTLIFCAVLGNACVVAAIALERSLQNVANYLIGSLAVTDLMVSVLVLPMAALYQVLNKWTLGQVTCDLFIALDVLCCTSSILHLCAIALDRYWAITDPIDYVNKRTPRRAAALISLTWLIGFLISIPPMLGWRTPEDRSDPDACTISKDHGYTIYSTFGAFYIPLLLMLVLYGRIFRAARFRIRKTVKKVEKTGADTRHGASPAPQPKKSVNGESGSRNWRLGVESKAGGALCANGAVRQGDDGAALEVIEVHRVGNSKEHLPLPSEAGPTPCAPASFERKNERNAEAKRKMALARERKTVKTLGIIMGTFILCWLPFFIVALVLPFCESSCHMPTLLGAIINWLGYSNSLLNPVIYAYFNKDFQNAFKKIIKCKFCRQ

Escherichia coli = experiment: microbe, parasite or virus in culture
A-375 [11] = experiment: MITF: Counter assay: A375 proliferation Measured in Cell-Based System Using Plate Reader - 2084-03_Inhibitor_Dose_DryPowder_Activity. [Related pubchem assays (depositor defined):AID488944]; format: functional; conditions: Homo sapiens
A-375 [12] = experiment: A375 melanoma cell viability reduction, dose response, counter-screen for MITF modulator project, cherry-pick samples, set 2 (AID 540335); format: functional, cell-based; conditions: Homo sapiens
[13] = molecular target: Delta-type opioid receptor (Homo sapiens, UniProt P41143); experiment: Counterscreen for agonists of heterodimerization of the mu 1 (OPRM1) and delta 1 (OPRD1) opioid receptors: Luminescence-based cell-based high throughput dose response assay to identify agonists of OPRD1 homodimerization. [Related pubchem assays (depositor defined):AID504326, AID504355, AID504692, AID504904, AID504905]; format: functional
Sequence of Delta-type opioid receptor (P41143 whole entry): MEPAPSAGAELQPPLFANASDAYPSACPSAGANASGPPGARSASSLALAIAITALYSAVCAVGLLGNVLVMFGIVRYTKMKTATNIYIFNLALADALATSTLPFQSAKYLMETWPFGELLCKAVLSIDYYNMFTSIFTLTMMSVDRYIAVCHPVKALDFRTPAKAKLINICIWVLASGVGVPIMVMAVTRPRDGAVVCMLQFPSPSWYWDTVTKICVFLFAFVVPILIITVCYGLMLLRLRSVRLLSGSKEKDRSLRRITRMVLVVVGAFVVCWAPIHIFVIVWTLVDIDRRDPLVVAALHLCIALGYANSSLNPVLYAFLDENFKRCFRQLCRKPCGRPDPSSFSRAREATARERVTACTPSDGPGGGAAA

Mu-type opioid receptor = Mu-type opioid receptor (Homo sapiens, UniProt P35372); experiment: Counterscreen for agonists of heterodimerization of the mu 1 (OPRM1) and delta 1 (OPRD1) opioid receptors: Luminescence-based cell-based high throughput dose response assay to identify agonists of OPRM1 homodimerization.; format: functional;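 note: U2OS cells expressing OPRM1 and beta-arrestin as split beta-galactosidase partners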
Sequence of Mu-type opioid receptor (P35372 whole entry): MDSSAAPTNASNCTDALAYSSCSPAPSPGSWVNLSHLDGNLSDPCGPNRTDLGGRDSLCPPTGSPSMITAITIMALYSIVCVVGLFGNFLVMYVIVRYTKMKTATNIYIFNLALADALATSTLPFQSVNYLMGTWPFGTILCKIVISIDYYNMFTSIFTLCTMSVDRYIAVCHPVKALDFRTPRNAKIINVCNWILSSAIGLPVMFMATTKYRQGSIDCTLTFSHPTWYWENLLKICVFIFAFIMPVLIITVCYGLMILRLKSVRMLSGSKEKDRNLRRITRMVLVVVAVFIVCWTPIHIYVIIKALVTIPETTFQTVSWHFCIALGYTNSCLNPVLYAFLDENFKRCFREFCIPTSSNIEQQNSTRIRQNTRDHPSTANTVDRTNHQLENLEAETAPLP

[14] = molecular target: 5-hydroxytryptamine receptor 5A (Homo sapiens, UniProt P47898); experiment: Counterscreen for agonists of OPRM1-OPRD1 heterodimerization: luminescence-based cell-based high throughput dose response assay to identify agonists of 5-hydroxytryptamine (serotonin) 5A receptor (HTR5A). [Related pubchem assays (depositor defined):AID504326, AID504355, AID504692, AID504904, AID504905]; format: functional
Sequence of 5-hydroxytryptamine receptor 5A (P47898 whole entry): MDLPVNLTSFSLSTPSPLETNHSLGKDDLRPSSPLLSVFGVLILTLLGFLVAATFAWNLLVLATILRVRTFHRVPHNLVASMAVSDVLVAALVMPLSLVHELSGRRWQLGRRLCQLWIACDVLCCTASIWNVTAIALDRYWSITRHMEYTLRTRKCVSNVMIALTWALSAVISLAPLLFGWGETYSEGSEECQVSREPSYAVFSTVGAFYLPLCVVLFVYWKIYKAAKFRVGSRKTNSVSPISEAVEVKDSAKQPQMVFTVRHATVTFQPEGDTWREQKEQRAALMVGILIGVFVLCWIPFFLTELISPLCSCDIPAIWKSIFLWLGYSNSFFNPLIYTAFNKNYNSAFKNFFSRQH

Structure (SMILES): Cc1cc(C(=O)N/N=C/c2cc(Cl)cc([N+](=O)[O-])c2O)c2ccccc2n1
- EC50 [1]: 34.3 µM (active)
- EC50 [2]: 1.03 µM (active)
- EC50 [3]: 14.7 µM (active)
- EC50 [4]: > 180 µM (inactive)
- EC50 (Streptococcus): 1.51 µM (active)
- EC50 [5]: 17.5 µM (active)
- IC50 (Albumin): > 94.1 µM (inactive)

Structure (SMILES): C[C@@H]1CN([C@@H](C)CO)C(=O)c2cccc(NC(=O)Nc3cccc4ccccc34)c2O[C@H]1CN(C)S(=O)(=O)c1ccc2ncsc2c1
- AC50 (INS1 [6]): 24.9 µM (active)
- AC50 [7]: 34.6 µM (active)
- AC50 (INS1 [8]): 38.8 µM (active)
- AC50 (INS1 [9]): 176 µM (active)

Structure (SMILES): Cn1c(-c2ccccc2)cnc1SCc1nc(O)c2ccccc2n1
- EC50 [10]: > 50 µM (not active)
- AC50 (Escherichia coli): 234 µM (active)

Structure (SMILES): C/C(=N\Nc1cc(N2CCOCC2)ncn1)c1ccccc1
- AC50 (A-375 [11]): > 35 µM (active)
- AC50 (A-375 [12]): > 35 µM (active)

Structure (SMILES): CCOC(=O)C1(c2ccccc2)CCN(CCC(=O)Nc2cccc(Br)c2)CC1
- EC50 [13]: 56.8 µM (inactive)
- EC50 (Mu-type opioid receptor): 40.6 µM (inactive)
- EC50 [14]: > 92.5 µM (inactive)
